# According to patent publication US11161855B2, “Tricyclic fused thiophene derivatives as JAK inhibitors” (Incyte Corporation, priority 2012, dated 2021):
# Tested on: human JAK1 (a.a. 837-1142)
# Experiment: In vitro JAK kinase assay (HTRF), JAK1
# Format: biochemical
# Conditions: ratio of IC50s, 1 mM ATP
# Protocol: Compounds herein were tested for inhibitory activity of JAK targets according to the following in vitro assay described in Park et al., Analytical Biochemistry 1999, 269, 94-104. The catalytic domains of human JAK1 (a.a. 837-1142), JAK2 (a.a. 828-1132) and JAK3 (a.a. 781-1124) were expressed using baculovirus in insect cells and purified. The catalytic activity of JAK1, JAK2 or JAK3 was assayed by measuring the phosphorylation of a biotinylated peptide. The phosphorylated peptide was detected by homogenous time resolved fluorescence (HTRF). IC50s of compounds were measured for each kinase in the 40 μL reactions that contain the enzyme, ATP and 500 nM peptide in 50 mM Tris (pH 7.8) buffer with 100 mM NaCl, 5 mM DTT, and 0.1 mg/mL (0.01%) BSA. For the 1 mM IC50 measurements, ATP concentration in the reactions was 1 mM. Reactions were carried out at room temperature for 1 hour and then stopped with 20 μL 45 mM EDTA, 300 nM SA-APC, 6 nM Eu-Py20 in assay buffer (Perkin Elmer, Boston, Mass.). Binding to the Europium labeled antibody took place for 40 minutes and HTRF signal was measured on a PHERA star plate reader (BMG, Cary, N.C.). The Example compounds were each tested in the Example A assay (see Table 1 for data for the compounds of the examples as tested by the assay of Example A at 1 mM ATP).
row,JAK2/JAK1,Structure (SMILES)
1,>10,"C[C@@H](O)c1cc2cnc3ccsc3c2n1[C@H]1CC[C@H](CC#N)CC1 [Example 23, (trans-4-{7-[(1R)-1-Hydroxyethyl]-8H-pyrrolo[2,3-d]thieno[3,2-b]pyridin-8-yl}cyclohexyl)acetonitrile]"
2,>6,"N#CC[C@H]1CC[C@H](n2/c(=N/C#N)[nH]c3cnc4ccsc4c32)CC1.O=C(O)C(F)(F)F [Example 25, {(2E)-1-[trans-4-(Cyanomethyl)cyclohexyl]-1,3-dihydro-2H-imidazo[4,5-d]thieno[3,2-b]pyridin-2-ylidene}cyanamide Trifluoroacetate]"
3,>10,"N#CC[C@H]1CC[C@H](n2c(C3CC3)nc3cnc4ccsc4c32)CC1 [Example 26, [trans-4-(2-Cyclopropyl-1H-imidazo[4,5-d]thieno[3,2-b]pyridin-1-yl)cyclohexyl]acetonitrile]"
4,>10,"CC(C)c1nc2cnc3ccsc3c2n1[C@H]1CC[C@H](CC#N)CC1 [Example 27, [trans-4-(2-Isopropyl-1H-imidazo[4,5-d]thieno[3,2-b]pyridin-1-yl)cyclohexyl]acetonitrile]"
5,>7,"N#CC[C@H]1CC[C@H](n2c(C3CNC3)nc3cnc4ccsc4c32)CC1 [Example 28, [trans-4-(2-Azetidin-3-yl-1H-imidazo[4,5-d]thieno[3,2-b]pyridin-1-yl)cyclohexyl]acetonitrile]"
6,>9,"CN1CC(c2nc3cnc4ccsc4c3n2[C@H]2CC[C@H](CC#N)CC2)C1 [Example 29, {trans-4-[2-(1-Methylazetidin-3-yl)-1H-imidazo[4,5-d]thieno[3,2-b]pyridin-1-yl]cyclohexyl}acetonitrile]"
7,>10,"CCNC(=O)C[C@H]1CC[C@H](n2c([C@@H](C)O)nc3cnc4ccsc4c32)CC1 [Example 31, N-Ethyl-2-(trans-4-{2-[(1R)-1-hydroxyethyl]-1H-imidazo[4,5-d]thieno[3,2-b]pyridin-1-yl}cyclohexyl)acetamide]"
8,>10,"C[C@@H](O)c1nc2cnc3ccsc3c2n1C1CCCC(CCC#N)C1 (stereo partly drawn) [Example 32, 3-(3-{2-[(1R)-1-Hydroxyethyl]-1H-imidazo[4,5-d]thieno[3,2-b]pyridin-1-yl}cyclohexyl)propanenitrile]"
9,>7,"Cc1nc2cnc3ccsc3n2c1-c1ccc(CC#N)cc1 [Example 33, [4-(7-Methylimidazo[1,2-a]thieno[3,2-e]pyrazin-8-yl)phenyl]acetonitrile]"
10,>10,"Cc1nc2cnc3ccsc3c2n1[C@H]1CC[C@H](CC#N)OC1 [Example 38, [(2R,5S)-5-(2-Methyl-1H-imidazo[4,5-d]thieno[3,2-b]pyridin-1-yl)tetrahydro-2H-pyran-2-yl]acetonitrile]"
11,>10,"CCc1nc2cnc3ccsc3c2n1[C@H]1CC[C@H](CC#N)OC1 [Example 39, [(2R,5S)-5-(2-Ethyl-1H-imidazo[4,5-d]thieno[3,2-b]pyridin-1-yl)tetrahydro-2H-pyran-2-yl]acetonitrile]"
12,>10,"CC(C)c1nc2cnc3ccsc3c2n1[C@H]1CC[C@H](CC#N)OC1 [Example 42, [(2R,5S)-5-(2-Isopropyl-1H-imidazo[4,5-d]thieno[3,2-b]pyridin-1-yl)tetrahydro-2H-pyran-2-yl]acetonitrile]"
13,>10,"N#CC[C@H]1CC[C@H](n2c(C3CC3)nc3cnc4ccsc4c32)CO1 [Example 43, [(2R,5S)-5-(2-Cyclopropyl-1H-imidazo[4,5-d]thieno[3,2-b]pyridin-1-yl)tetrahydro-2H-pyran-2-yl]acetonitrile]"
14,>10,"C[C@@H](O)c1nc2cnc3ccsc3c2n1[C@@H]1CC[C@@H](CC#N)OC1 [Example 44, ((2S,5R)-5-{2-[(1R)-1-Hydroxyethyl]-1H-imidazo[4,5-d]thieno[3,2-b]pyridin-1-yl}tetrahydro-2H-pyran-2-yl)acetonitrile]"
15,>10,"C[C@H](O)c1nc2cnc3ccsc3c2n1[C@H]1CC[C@H](CC#N)OC1 [Example 45, ((2R,5S)-5-{2-[(1S)-1-Hydroxyethyl]-1H-imidazo[4,5-d]thieno[3,2-b]pyridin-1-yl}tetrahydro-2H-pyran-2-yl)acetonitrile]"
16,>3,"Cc1nn2cnc3ccsc3c2c1-c1ccc(CC#N)cc1 [Example 46, [4-(8-Methylpyrazolo[1,5-c]thieno[2,3-e]pyrimidin-9-yl)phenyl]acetonitrile]"
17,>10,"CCc1nc2cnc3ccsc3c2n1[C@H]1CC[C@H](CC#N)CC1 [Example 47, [trans-4-(2-Ethyl-1H-imidazo[4,5-d]thieno[3,2-b]pyridin-1-yl)cyclohexyl]acetonitrile]"

row,JAK2/JAK1,Structure (SMILES)
1,>7,"Cc1nc2cnc3ccsc3c2n1[C@H]1CC[C@H](CC#N)CC1 [Example 48, [trans-4-(2-Methyl-1H-imidazo[4,5-d]thieno[3,2-b]pyridin-1-yl)cyclohexyl]acetonitrile]"
2,>10,"C[C@@H](O)c1nc2cnc3ccsc3c2n1[C@H]1CC[C@@H](CC#N)C1.O=C(O)C(F)(F)F [Example 49, ((1R,3S)-3-{2-[(1R)-1-Hydroxyethyl]-1H-imidazo[4,5-d]thieno[3,2-b]pyridin-1-yl}cyclopentyl)acetonitrile Trifluoroacetate]"
3,>10,"CCOC(=O)N1CCC[C@H](n2c([C@@H](C)O)nc3cnc4ccsc4c32)C1 [Example 50, Ethyl (3S)-3-{2-[(1R)-1-hydroxyethyl]-1H-imidazo[4,5-d]thieno[3,2-b]pyridin-1-yl}piperidine-1-carboxylate]"
4,>10,"C[C@@H](O)c1nc2cnc3ccsc3c2n1[C@H]1CCCN(C(=O)CC#N)C1.O=C(O)C(F)(F)F [Example 51, 3-((3S)-3-{2-[(1R)-1-Hydroxyethyl]-1H-imidazo[4,5-d]thieno[3,2-b]pyridin-1-yl}piperidin-1-yl)-3-oxopropanenitrile trifluoroacetate]"
5,>10,"C[C@@H](O)c1nc2cnc3ccsc3c2n1[C@H]1CCCN(C(=O)CCc2cn[nH]c2)C1 [Example 53, (1R)-1-(1-{(3S)-1-[3-(1H-Pyrazol-4-yl)propanoyl]piperidin-3-yl}-1H-imidazo[4,5-d]thieno[3,2-b]pyridin-2-yl)ethanol]"
6,>10,"C[C@@H](O)c1nc2cnc3ccsc3c2n1[C@H]1CCCN(C(=O)CCc2cccnc2)C1 [Example 54, (1R)-1-{1-[(3S)-1-(3-Pyridin-3-ylpropanoyl)piperidin-3-yl]-1H-imidazo[4,5-d]thieno[3,2-b]pyridin-2-yl}ethanol]"
7,>10,"CC(CC(=O)N1CCC[C@H](n2c([C@@H](C)O)nc3cnc4ccsc4c32)C1)c1ccccc1 (stereo partly drawn) [Example 55, (1R)-1-{1-[(3S)-1-(3-Phenylbutanoyl)piperidin-3-yl]-1H-imidazo[4,5-d]thieno[3,2-b]pyridin-2-yl}ethanol]"
8,>10,"C[C@@H](O)c1nc2cnc3ccsc3c2n1[C@H]1CCCN(CCC#N)C1 [Example 56, 3-((3S)-3-{2-[(1R)-1-Hydroxyethyl]-1H-imidazo[4,5-d]thieno[3,2-b]pyridin-1-yl}piperidin-1-yl)propanenitrile]"
9,>10,C[C@@H](O)c1nc2cnc3ccsc3c2n1[C@H]1CCCN(C(=O)CCc2ccccc2)C1 [Example 57]
10,>10,"C[C@@H](O)c1nc2cnc3ccsc3c2n1[C@H]1CCCN(C(=O)CCC#N)C1 [Example 58, 4-((3S)-3-{2-[(1R)-1-Hydroxyethyl]-1H-imidazo[4,5-d]thieno[3,2-b]pyridin-1-yl}piperidin-1-yl)-4-oxobutanenitrile]"
11,>10,"C[C@@H](O)c1nc2cnc3ccsc3c2n1[C@H]1CCCN(C(=O)CCCC#N)C1 [Example 59, 5-((3S)-3-{2-[(1R)-1-Hydroxyethyl]-1H-imidazo[4,5-d]thieno[3,2-b]pyridin-1-yl}piperidin-1-yl)-5-oxopentanenitrile]"
12,>10,"C[C@@H](O)c1nc2cnc3ccsc3c2n1C1CCN(CCCC(F)(F)F)CC1 [Example 60, (1R)-1-{1-[1-(4,4,4-Trifluorobutyl)piperidin-4-yl]-1H-imidazo[4,5-d]thieno[3,2-b]pyridin-2-yl}ethanol]"
13,>10,"C[C@@H](O)c1nc2cnc3ccsc3c2n1C1CCN(CC#N)CC1.O=C(O)C(F)(F)F [Example 61, (4-{2-[(1R)-1-Hydroxyethyl]-1H-imidazo[4,5-d]thieno[3,2-b]pyridin-1-yl}piperidin-1-yl)acetonitrile trifluoroacetate]"
14,>10,"C[C@@H](O)c1nc2cnc3ccsc3c2n1[C@H]1CCN(CCC#N)C1 [Example 62, 3-((3S)-3-{2-[(1R)-1-Hydroxyethyl]-1H-imidazo[4,5-d]thieno[3,2-b]pyridin-1-yl}pyrrolidin-1-yl)propanenitrile]"
15,>6,"C[C@@H](O)c1nc2cnc3ccsc3c2n1[C@H]1CCN(C(=O)CC#N)C1 [Example 63, 3-((3S)-3-{2-[(1R)-1-Hydroxyethyl]-1H-imidazo[4,5-d]thieno[3,2-b]pyridin-1-yl}pyrrolidin-1-yl)-3-oxopropanenitrile]"
16,>10,"C[C@@H](O)c1nc2cnc3ccsc3c2n1[C@H]1CCN(CCCC(F)(F)F)C1 [Example 64, (1R)-1-{1-[(3S)-1-(4,4,4-Trifluorobutyl)pyrrolidin-3-yl]-1H-imidazo[4,5-d]thieno[3,2-b]pyridin-2-yl}ethanol]"
